{
  "source": "patent US9133260B2",
  "about": "(priority 2005, dated 2015)",
  "key": {"[1]": {"type": "in vivo, NIH/Swiss mice", "conditions": "for acute food intake, in words: IP at t=0, 30, 60, 120 min", "description": "Peptide was injected IP at t=0.\nPeptide was injected IP at t=0. […] Peptide was injected IP at t=0."}, "[2]": {"conditions": "cited from earlier work; for EC(50) inhibition of gastric emptying: subcutaneous, conscious rats, rat weight ~200 g; for inhibition of gastric emptying, in words: at doses of 100 μg"}, "relevant receptors": {"molecular_target": "relevant receptors", "test": "Cyclase, table of GIP/amylin-sCT hybrids", "type": "biochemical", "conditions": "receptor and unit inferred"}, "[3]": {"tested_on": "cardiomyocyte Gs-coupled receptors", "test": "cAMP production in isolated neonatal cardiomyocytes (HTRF)", "type": "cell-based, rat", "description": "Activation of cardiomyocyte Gs- and Gi-coupled receptors was determined as a measure of cAMP production.\nCell Isolation. Neonatal cardiomyocytes were isolated using a commercially available system. […] Sprague Dawley neonatal rats (1-2 days old) were decapitated and the beating heart dissected out into digestion buffer (Cellutron D1 buffer) to dissociate cells. […] The resuspended cells incubated in buffer (Cellutron D3 buffer) for sufficient time to allow optimal dispersion and minimize the need for pipetting to break up clumps. Cells released from the first 2 digestions were discarded since a significant portion of these is red blood cells. Resuspended cells were filtered and allowed to pre-plate for 1 hour on plastic in an incubator in NS media (Cellutron, NJ) in order to remove fibroblasts. After 1 hour of pre-plating, floating cells are removed and the flask rinsed with NS media. The floating cells and the cells in the rinse media were combined and counted. Residual red blood cells, which are smaller that the cardiac myocytes, were not counted.\nCell Plating. […] At Day 1, the NS media was replaced with fresh NS media.\ncAMP Assay. […] Dose response was determined.\nFor Gs assays the positive control was 10 uM forskolin and negative control was buffer. For Gi assays the positive control was buffer and the negative control was 10 uM forskolin."}, "[4]": {"test": "Basal glucose lowering in 2-hour fasted NIH/Swiss mice", "type": "in vivo", "conditions": "for basal glucose lowering (% maximal decrease): mouse, in vivo", "procedure": "(§1) In FIG. 3A, bars represent mean±sd, n=6-10. Peptide was injected IP at t=−5 into overnight-fasted NIH/Swiss mice. Gavage (1.5 g/kg) was given at t=0. Sample was taken at t=30 min. […] In FIG. 3B, points represent mean±sem, n=8-15. Peptide was injected IP at t=0 immediately following baseline sample into 2-hour fasted NIH/Swiss mice. Samples were taken at t=60, 120, and 180 minutes. […] Compound G has both an N-terminal modification providing DPP-IV resitance and a C-terminal Trp-cage shield.\nPoints represent mean±sem. Peptide was injected IP at t=0 immediately following baseline sample into 2-hour fasted NIH/Swiss mice. Samples were taken at t=60, 120, 180 and 240 minutes.\nFIGS. 8A and 8b provide a result of one such study. Points represent mean±sem. Peptide was injected IP at t=0 immediately following baseline sample into 2-hour fasted NIH/Swiss mice. Samples were taken at t=60, 120, 180 and 240 minutes."}, "[5]": {"test": "Intravenous glucose tolerance test (IVGTT assay)", "type": "in vivo, rats", "conditions": "100 pmol/kg/min infusion; for insulinotropic response to an intravenous glucose challenge: anesthetized HSD male rats", "procedure": "All three analogs produced a significant lowering of the glucose excursion in response to the glucose challenge (data not shown). As described, fed, isoflurane anesthetized HSD male rats were intubated and cannulated via femoral artery and vein and allowed to stabilize for 1 hour. […] At t=0, an i.v. bolus of 5.7 mmol/kg D-glucose was administered over 2 minutes. Samples for glucose measurement and insulin concentrations were taken at various time points before and after (0 to 90 minutes) glucose infusion."}, "[6]": {"test": "Oral glucose tolerance test (OGTT)", "type": "in vivo, NIH/Swiss mice", "conditions": "decrease in the OGTT assay", "procedure": "as §1\nIn FIG. 13B bars represent mean+/−sd. Peptide was injected IP at t=−5 minutes into 4-hour fasted NIH/Swiss female mice. Gavage (1.5 g/kg) was given at t=0. […] In FIG. 17 points represent mean+/−sem. Peptide was injected IP at t=) immediatley following baseline sample into 2-hour fasted NIH/Swiss mice. Samples were taken at t=60, t=120 and t=180. […] In one embodiment for each of these GIP hybrids a Gly linker is used, e.g. GlyGlyGly."}, "[7]": {"test": "Glucose lowering in diabetic db/db mice", "type": "in vivo", "conditions": "IP; GIP at a 10 fold higher dose", "description": "Peptide was injected IP at t=0 immediately following baseline sample into 2-hour fasted db/db mice."}, "[8]": {"test": "Circulatory system effects in conscious rats by telemetry", "type": "in vivo", "conditions": "80 nmol/kg intravenous", "procedure": "The experiments were performed during the light cycle. Telemetry allows for real-time hemodynamic readings including arterial blood pressure, heart rate and arterial dP/dt, via an implanted radio transmitter in conscious, non-anesthetized, unrestrained rats. […] Remote intravenous dosing was achieved through in-dwelling vascular access ports (Access Technologies (Skokie, Ill.). The port is secured to the underlying muscle just below the skin between the scapulae. The catheter resides in the jugular vein. Data were collected for up to 60 minutes following injection."}, "[9]": {"test": "Body weight in diet-induced-obesity (DIO) mice", "type": "in vivo, C57BL/6 mice", "conditions": "for body weight change in diet-induced-obese mice: infused via osmotic pump for 2 weeks"}},
  "note": "Entries after “also recorded” stand apart in the source; their conditions may differ. Read-outs that look alike come from different tables or passages of the source. Ends that are not written are not given here.",
  "data": [
    {"substance": "KCNTATCATQRLANFLVRSSNNLGPVLPPTNVGSNTY-NH2 [Rat Amylin]", "values": [
      {"measurement": "acute food intake, in words", "setting": "[1]", "result": "significant decrease in food intake within 30 min"},
      {"measurement": "60 min ED50", "setting": "[1]; mouse food intake at 60 min", "result": 9, "unit": "nmol/kg"},
      {"measurement": "EC(50) inhibition of gastric emptying", "setting": "[2]", "result": 0.18, "unit": "µg"}
    ]},
    {"substance": "YAEGTFISDYSIAMDKIHQQDFVNWLLAQKPSSGAPPPS [Compound 1]", "values": [
      {"measurement": "EC50", "setting": "relevant receptors", "result": 519, "unit": "nM"}
    ]},
    {"substance": "HAEGTFTSDVSSYLEGQAAKEFIAWLVKGR-NH2 [GLP-1]", "values": [
      {"measurement": "cAMP activity in cardiomyocytes, in words", "setting": "[3]", "result": "very low to no significant activity"},
      {"measurement": "EC(50) inhibition of gastric emptying", "setting": "[2]", "result": 1.82, "unit": "µg"}
    ]},
    {"substance": "neuropeptide Y: neuropeptide Y", "values": [
      {"measurement": "inhibition of gastric emptying, in words", "setting": "[2]", "result": "weakly active or inactive"}
    ]},
    {"substance": "Secretin: gut peptide hormone secretin", "values": [
      {"measurement": "EC(50) inhibition of gastric emptying", "setting": "[2]", "result": 1.87, "unit": "µg"}
    ]},
    {"substance": "Rat CGRP: rat calcitonin gene related peptide (SCNTATCVTHRLAGLLSRSGGVVKDNFVPTNVGSEAF; ends and bridges not checked; cysteine pairing not given here; UniProt P01256 83-119, looked up)", "values": [
      {"measurement": "EC(50) inhibition of gastric emptying", "setting": "[2]", "result": 1.62, "unit": "µg"}
    ]},
    {"substance": "insulin: insulin (tested with plasma glucose maintained constant)", "values": [
      {"measurement": "inhibition of gastric emptying, in words", "setting": "[2]", "result": "weakly active or inactive"}
    ]},
    {"substance": "DY(SO3) MGWMDF-NH2 [CCK-8]", "values": [
      {"measurement": "60 min ED50", "setting": "[1]; mouse, in vivo", "result": 26, "unit": "nmol/kg"},
      {"measurement": "EC(50) inhibition of gastric emptying", "setting": "[2]", "result": 2.93, "unit": "µg"}
    ]},
    {"substance": "Gastrin releasing peptide: gastrin releasing peptide (VPLPAGGGTVLTKMYPRGNHWAVGHLM-NH2; ends and bridges not checked; UniProt P07492 24-50, looked up)", "values": [
      {"measurement": "EC(50) inhibition of gastric emptying", "setting": "[2]", "result": 28.5, "unit": "µg"}
    ]},
    {"substance": "glucagon: peptide hormone glucagon", "values": [
      {"measurement": "inhibition of gastric emptying, in words", "setting": "[2]", "result": "weakly active or inactive"}
    ]},
    {"substance": "PACAP38: pituitary adenylate cyclase activating peptide (PACAP38) (HSDGIFTDSYSRYRKQMAVKKYLAAVLGKRYKQRVKNK-NH2; ends and bridges not checked; UniProt P18509 132-169, looked up)", "values": [
      {"measurement": "inhibition of gastric emptying, in words", "setting": "[2]", "result": "weakly active or inactive"}
    ]},
    {"substance": "Y(D-Ala)EGTFISDYSIAMDKIHQQDFVNWLLAQKGKKNDWKHNITQ-OH [Compound 0601GIP4042]", "values": [
      {"measurement": "basal glucose lowering (% maximal decrease)", "setting": "[4]", "result": "−11", "unit": "%"},
      {"measurement": "insulinotropic response to an intravenous glucose challenge", "setting": "[5]", "result": "significant enhancement of the insulinotropic response"}
    ]},
    {"substance": "KCNTATCATQRLANFLVHSSNNFGAILSSTNVGSNTY [Human amylin]", "values": [
      {"measurement": "EC(50) inhibition of gastric emptying", "setting": "[2]", "result": 0.15, "unit": "µg"}
    ]},
    {"substance": "CSNLSTCVLGKLSQELHKLQTYPRTNTGSGTP [Salmon calcitonin]", "values": [
      {"measurement": "EC(50) inhibition of gastric emptying", "setting": "[2]", "result": 0.19, "unit": "µg"}
    ]},
    {"substance": "HGEGAFTSDLSKQLEEEAVRLFIEFLKN-NH2 [Exendin-4 (1-28) [Ala5, Leu14, Phe25]]", "values": [
      {"measurement": "60 min ED50", "setting": "[1]; mouse food intake at 60 min", "result": 13, "unit": "nmol/kg"}
    ]},
    {"substance": "YAEGTFISDYSIAMDKIHQQDFVNWLLAQKGKKNDWKHNITQ-OH [GIP]", "values": [
      {"measurement": "acute food intake, in words", "setting": "[1]", "result": "did not acutely inhibit food intake"},
      {"measurement": "OGTT response", "setting": "[6]", "result": "−10", "unit": "%"},
      {"measurement": "glucose lowering in diabetic db/db mice, in words", "setting": "[7]", "result": "modest and wanes over time"},
      {"measurement": "insulin levels prior to the glucose challenge", "setting": "[5]", "result": "significant rise in insulin levels"},
      {"measurement": "insulinotropic response to an intravenous glucose challenge", "setting": "[5]", "result": "significant enhancement of the insulinotropic response"},
      {"measurement": "dP/dt", "setting": "[8]", "result": "increased dP/dt similarly"},
      {"measurement": "heart rate", "setting": "[8]", "result": "chronotropic (heart rate elevating) effect"},
      {"measurement": "mean arterial pressure", "setting": "[8]", "result": "had no effect"},
      {"measurement": "body weight change in diet-induced-obese mice", "setting": "[9]", "result": "had no effect on body weight change"},
      {"measurement": "inhibition of gastric emptying, in words", "setting": "[2]", "result": "weakly active or inactive"}
    ]},
    {"substance": "vasoactive intestinal peptide: vasoactive intestinal peptide (VIP) (HSDAVFTDNYTRLRKQMAVKKYLNSILN; ends and bridges not checked; UniProt P01282 125-152, looked up)", "values": [
      {"measurement": "inhibition of gastric emptying, in words", "setting": "[2]", "result": "weakly active or inactive"}
    ]},
    {"substance": "adrenomedullin: amylin family peptide hormone adrenomedullin (YRQSMNNFQGLRSFGCRFGTCTVQKLAHQIYQFTDKDKDNVAPRSKISPQGY; ends and bridges not checked; cysteine pairing not given here; UniProt P35318 95-146, looked up)", "values": [
      {"measurement": "inhibition of gastric emptying, in words", "setting": "[2]", "result": "weakly active or inactive"}
    ]},
    {"substance": "Rat calcitonin: rat calcitonin, peptide compared for inhibition of gastric emptying (CGNLSTCMLGTYTQDLNKFHTFPQTSIGVGAP; ends and bridges not checked; cysteine pairing not given here; UniProt P01257 85-116, looked up)", "values": [
      {"measurement": "EC(50) inhibition of gastric emptying", "setting": "[2]", "result": 0.64, "unit": "µg"}
    ]},
    {"substance": "YaEGTFISDYSIAMDKIHQQDFVNWLLAQKPSSGAPPPS-NH2 [Compound 0601GIP3794]", "values": [
      {"measurement": "acute food intake, in words", "setting": "[1]", "result": "did not acutely inhibit food intake"},
      {"measurement": "glucose lowering in normal NIH/Swiss mice, in words", "setting": "[4]; IP, samples 60-240 min, listed as Compound G", "result": "significantly more efficacious than full length GIP; also recorded: gradually increasing activity that peaks at t=120 min"},
      {"measurement": "basal glucose lowering (% maximal decrease)", "setting": "[4]", "result": "−20", "unit": "%"},
      {"measurement": "OGTT response", "setting": "[6]", "result": "−21", "unit": "%"},
      {"measurement": "glucose lowering in diabetic db/db mice, in words", "setting": "[7]", "result": "pronounced and long-acting effect in lowering glucose"},
      {"measurement": "insulin levels prior to the glucose challenge", "setting": "[5]", "result": "significant rise in insulin levels"},
      {"measurement": "insulinotropic response to an intravenous glucose challenge", "setting": "[5]", "result": "significant enhancement of the insulinotropic response"},
      {"measurement": "EC50", "setting": "[3]; experiment of FIGS. 18A/18B, read-out: EC50, cAMP production in cardiomyocytes", "result": 11.7, "unit": "nM"},
      {"measurement": "EC50", "setting": "[3]; from three independent experiments, read-out: EC50, cardiomyocyte Gs-coupled receptor activation", "result": 29.8, "unit": "nM"},
      {"measurement": "dP/dt", "setting": "[8]", "result": "increased dP/dt similarly"},
      {"measurement": "heart rate", "setting": "[8]", "result": "transient relative to GIP"},
      {"measurement": "mean arterial pressure", "setting": "[8]", "result": "decreased mean arterial pressure"},
      {"measurement": "systolic and diastolic pressures", "setting": "[8]", "result": "sustained lowering of systolic and diastolic pressures"},
      {"measurement": "body weight change in diet-induced-obese mice", "setting": "[9]", "result": "without a concomitant reduction in body weight"},
      {"measurement": "body composition", "setting": "[9]; mouse, in vivo", "result": "slight decrease in percentage body fat with an increase in body protein"}
    ]}
  ]
}
